Reference: the NIST ThermoML archive (doi:10.1021/je400659p)

Tests used:
[1] = 101 kPa, Liquid, Vibrating tube method
[2] = refractive index (Na D-line) (dimensionless); details: 101.33 kPa, Liquid, Standard Abbe refractometry
[3] = refractive index (Na D-line) (dimensionless); xn = mol fraction of the nth substance listed; details: 101 kPa, Liquid, Standard Abbe refractometry
[4] = xn = mol fraction of the nth substance listed; details: 101 kPa, Liquid, Vibrating tube method

C1COCCO1 [1,4-dioxane]
Details | mass density, [1] [kg/m3] | refractive index, [2]
293.15 K | 1033.57 | –
298.15 K | 1027.92 | 1.4205
303.15 K | 1022.27 | 1.4171
313.15 K | 1010.91 | 1.4112
323.15 K | 999.49 | 1.4063
333.15 K | 987.97 | –
343.15 K | 976.37 | –
353.15 K | 964.63 | –

CCCCn1cc[n+](C)c1.F[B-](F)(F)F [1-butyl-3-methylimidazolium tetrafluoroborate] + C1COCCO1
x1 = 1
Details | mass density, [4] [kg/m3] | refractive index, [3]
293.15 K | 1204.44 | –
298.15 K | 1200.89 | 1.4215
303.15 K | 1197.34 | 1.4202
313.15 K | 1190.27 | 1.4179
323.15 K | 1183.24 | 1.4153
333.15 K | 1176.25 | –
343.15 K | 1169.32 | –
353.15 K | 1162.44 | –

CCCCn1cc[n+](C)c1.F[B-](F)(F)F [1-butyl-3-methylimidazolium tetrafluoroborate]
Details | mass density, [1] [kg/m3] | refractive index, [2]
293.15 K | 1204.44 | –
298.15 K | 1200.89 | 1.4215
303.15 K | 1197.34 | 1.4202
313.15 K | 1190.27 | 1.4179
323.15 K | 1183.24 | 1.4153
333.15 K | 1176.25 | –
343.15 K | 1169.32 | –
353.15 K | 1162.44 | –

CCn1cc[n+](C)c1.F[B-](F)(F)F [1-ethyl-3-methylimidazolium tetrafluoroborate]
Details | mass density, [1] [kg/m3] | refractive index, [2]
293.15 K | 1290.63 | –
298.15 K | 1286.82 | 1.4111
303.15 K | 1283.02 | 1.41
313.15 K | 1275.45 | 1.4073
323.15 K | 1267.97 | 1.4051
333.15 K | 1260.55 | –
343.15 K | 1253.18 | –
353.15 K | 1245.87 | –

OCCO [1,2-ethanediol]
Details | mass density, [1] [kg/m3] | refractive index, [2]
293.15 K | 1113.45 | –
298.15 K | – | 1.43
303.15 K | 1106.45 | 1.4285
313.15 K | 1099.38 | 1.4258
323.15 K | 1092.24 | 1.4229
333.15 K | 1085 | –
343.15 K | 1077.65 | –
353.15 K | 1070.17 | –

OCCO [1,2-ethanediol] + CCCCn1cc[n+](C)c1.F[B-](F)(F)F
[3], x2 = 0
Details | refractive index
298.15 K | 1.43
303.15 K | 1.4285
313.15 K | 1.4258
323.15 K | 1.4229

OCCO [1,2-ethanediol] + CCn1cc[n+](C)c1.F[B-](F)(F)F
x2 = 0
Details | mass density, [4] [kg/m3] | refractive index, [3]
293.15 K | 1113.45 | –
298.15 K | – | 1.43
303.15 K | 1106.45 | 1.4285
313.15 K | 1099.38 | 1.4258
323.15 K | 1092.24 | 1.4229
333.15 K | 1085 | –
343.15 K | 1077.65 | –
353.15 K | 1070.17 | –

CCCCn1cc[n+](C)c1.F[B-](F)(F)F [1-butyl-3-methylimidazolium tetrafluoroborate] + OCCO
refractive index, [3]
Details | x1 = 0.0895 | x1 = 0.1758 | x1 = 0.3578 | x1 = 0.4397 | x1 = 0.6482 | x1 = 0.8121 | x1 = 1
298.15 K | 1.4276 | 1.4257 | 1.4231 | 1.4224 | 1.4217 | 1.4216 | 1.4215
303.15 K | 1.4258 | 1.4239 | 1.4216 | 1.4211 | 1.4205 | 1.4204 | 1.4202
313.15 K | 1.4231 | 1.4212 | 1.4188 | 1.4182 | 1.4178 | 1.4179 | 1.4179
323.15 K | 1.4203 | 1.4184 | 1.4159 | 1.4154 | 1.415 | 1.4152 | 1.4153

C1COCCO1 [1,4-dioxane] + CCn1cc[n+](C)c1.F[B-](F)(F)F
x2 = 0
Details | mass density, [4] [kg/m3] | refractive index, [3]
293.15 K | 1033.57 | –
298.15 K | 1027.92 | 1.4205
303.15 K | 1022.27 | 1.4171
313.15 K | 1010.91 | 1.4112
323.15 K | 999.49 | 1.4063
333.15 K | 987.97 | –
343.15 K | 976.37 | –
353.15 K | 964.63 | –
